Reference: PMC11444265 (European journal of medicinal chemistry, 2021)
≈ marks a conversion by molar mass, not a printed value. Where “and” joins values, the source holds several entries; their conditions need not be identical. Identical values can stand only once. Entries after “also recorded” stand apart in the source; their conditions may differ. Peptide text beside a SMILES is read from it. * marks the point of attachment. βNA = c1ccc2cc(N*)ccc2c1

Experiments:
[1] = test system: Acinetobacter spp.; experiment: MIC in low iron media, 198-member panel of Acinetobacter spp. clinical isolates; type: cell-based
[2] = test system: Acinetobacter spp. isolates resistant to 2; experiment: MIC of 2 in combination with efflux pump inhibitors; type: cell-based; settings: for direct effect of efflux pump inhibitor on growth: 2 μg/mL for CCCP and 32 μg/mL for PAβN
[3] = test system: P. aeruginosa AR-BANK#0229; experiment: Neutropenic mouse thigh infection model; type: in vivo; settings: 50 and 100 mg/kg SC q6h, neutropenic mice
[4] = mice; cited from earlier work
[5] = test system: K. pneumoniae; type: cell-based; settings: Klebsiella pneumoniae
[6] = test system: carbapenem-resistant A. baumannii (CRAB); experiment: MIC in low iron media, 98-member carbapenem-resistant A. baumannii; type: cell-based
[7] = test system: MDR strains of K. pneumoniae, Acinetobacter spp., and P. aeruginosa; experiment: MIC50 summary against MDR strains; type: cell-based
[8] = test system: 6 ion channels, including hERG; experiment: Ion channel panel; settings: 30 μM maximal dose
[9] = Plasma protein binding, mouse; type: in vitro ADME
[10] = test system: P. aeruginosa; type: cell-based, Pseudomonas aeruginosa; settings: for susceptibility of strain: strain AR-BANK#0229
[11] = Pharmacokinetics in CD-1 mice, 50 mg/kg sc or iv; type: in vivo; settings: for Sample Conc (individual mouse plasma): sc 50 mg/kg
[12] = test system: human primary hepatocytes; experiment: Cytotoxicity in human primary hepatocytes; type: cell-based; settings: maximal dose of 100 μM
[13] = Plasma protein binding, human; type: in vitro ADME
[14] = test system: Caco-2; experiment: Caco-2 permeability; type: in vitro ADME
[15] = test system: 8 CYP enzymes; experiment: CYP inhibition panel; type: in vitro ADME; settings: 7 of the 8 CYP enzymes tested, 30 μM

## C[C@H]1[C@H](NC(=O)/C(=N\OC(C)(C)C(=O)O)c2csc(N)n2)C(=O)N1S(=O)(=O)O [Aztreonam (3), aztreonam]
[1]; Acinetobacter
  MIC50: > 32 mg/L
  MIC90: > 32 mg/L

## N#CC(C#N)=NNc1cccc(Cl)c1 [CCCP, carbonyl cyanide 3-chlorophenylhydrazone, reference compound]
[2]
  direct effect of efflux pump inhibitor on growth: No significant inhibition effect on growth

## CC(C)(O/N=C(\C(=O)N[C@@H]1C(=O)N2C(C(=O)[O-])=C(C[n+]3ccccc3)CS[C@H]12)c1csc(N)n1)C(=O)O [Ceftazidime (4), ceftazidime]
[1]; Acinetobacter
  MIC90: > 64 mg/L

## CC(C)(O/N=C(\C(=O)N[C@H]1CN2CC(C(=O)NCCN3C(=O)c4cc(O)c(O)cc4C3=O)=C(C(=O)O)N2C1=O)c1csc(N)n1)C(=O)O [Compound 1]
[3]
  efficacy (thigh bacterial burden, CFU): not found to have efficacy
[4]
  plasma concentration at the 6-hour timepoint: about 0.35 mg/mL

## CC(C)(O/N=C(\C(=O)N[C@H]1CN2CC(C(=O)NCCN3C(=O)c4cc(O)c(O)cc4C3=O)=C(C(=O)O)N2C1=O)c1nc(N)sc1Cl)C(=O)O [Compound 2, (S,Z)-6-(2-(2-amino-5-chlorothiazol-4-yl)-2-(((2-carboxypropan-2-yl)oxy)imino)acetamido)-2-((2-(5,6-dihydroxy-1,3-dioxoisoindolin-2-yl)ethyl)carbamoyl)-5-oxo-6,7-dihydro-1H,5H-pyrazolo[1,2-a]pyrazole-3-carboxylic acid]
[5]
  MIC50: 1000 mg/L (≈ 1390 µM)
[1]; 24 of 198 tested strains
  fraction of strains with MICs >=16 μg/mL: 12%
[1]; Acinetobacter
  MIC90: > 16 mg/L
[1]; full 198 member panel, 2 with 20 μg/mL coadministration of sulbactam
  share of panel that could be susceptible: 98%
[3]
  efficacy (thigh bacterial burden, CFU): dose-dependent efficacy; also recorded: dose-dependent reduction in CFU values
[6]; 98 CRAB subset, cefiderocol breakpoint <=4 μg/mL applied, 81 out of 98
  susceptibility of panel (isolates susceptible): 83%
[6]; carbapenem-resistant subgroup, 15 of 98
  fraction of strains with MICs >=16 μg/mL: 15%
[7]
  MIC50: ≤ 0.5 mg/L
[8]
  ion channel inhibition: did not inhibit these channels
[9]
  protein-bound: 94%
[10]; Pseudomonas aeruginosa
  MIC50: 500 mg/L (≈ 693 µM)
[11]; CD-1 mice, by both dosing routes (sc and iv)
  plasma level at the 6h time point: > 1000 µg/mL
[11]; 0.167 h
  Sample Conc (individual mouse plasma): 48689 ng/mL and 44921 ng/mL
[11]; 0.5 h
  Sample Conc (individual mouse plasma): 14355 ng/mL and 14094 ng/mL
[11]; 1 h
  Sample Conc (individual mouse plasma): 3515 ng/mL and 3186 ng/mL
[11]; 2 h
  Sample Conc (individual mouse plasma): 2876 ng/mL
[11]; 4 h
  Sample Conc (individual mouse plasma): 1534 ng/mL and 739 ng/mL
[11]; 6 h
  Sample Conc (individual mouse plasma): 1102 ng/mL and 1425 ng/mL
[11]; 8 h
  Sample Conc (individual mouse plasma): 1473 ng/mL and 1126 ng/mL
[11]; 24 h
  Sample Conc (individual mouse plasma): 545 ng/mL and 579 ng/mL
[12]
  cytotoxicity: not found
[13]
  protein-bound: 88%
[14]
  Caco-2 permeability: poor Caco-2 permeability
[2]; combined with CCCP 2 μg/mL or PAβN 32 μg/mL
  effect of efflux pump inhibitors on MIC of 2: no consistent effect on MIC values
[2]; isolate PR-452, CCCP 2 μg/mL
  effect of combination with CCCP: Potential synergistic effects
[15]
  CYP inhibition: does not inhibit

## CC1(C)[C@H](C(=O)O)N2C(=O)C[C@H]2S1(=O)=O [Compound 10, sulbactam]
[1]; 24 isolates with MIC of 2 >=16 μg/mL, 19/24
  isolates with MICs <=16 μg/mL: 79%

## C[C@@H](O)[C@H]1C(=O)N2C(C(=O)O)=C(S[C@@H]3CN[C@H](C(=O)N(C)C)C3)[C@H](C)[C@H]12 [Meropenem (5), meropenem, reference compound]
[1]; Acinetobacter
  MIC90: > 64 mg/L
[6]; Acinetobacter baumannii
  MIC90: > 64 mg/L
[7]
  MIC50: > 8 mg/L

## NC(N)=NCCC[C@H](NC(=O)[C@@H](N)Cc1ccccc1)C(=O)Nc1ccc2ccccc2c1 [PaβN, phenylalanine-arginine β-naphthylamide, reference compound] (H-Phe-Arg-βNA)
[2]
  direct effect of efflux pump inhibitor on growth: No significant inhibition effect on growth

## NCC[C@H](O)C(=O)N[C@@H]1C[C@H](N)[C@@H](O[C@H]2O[C@H](CN)[C@@H](O)[C@H](O)[C@H]2O)[C@H](O)[C@H]1O[C@H]1O[C@H](CO)[C@@H](O)[C@H](N)[C@H]1O [amikacin]
[10]
  susceptibility of strain: susceptible

## CNC(C)C1CCC(N)C(OC2C(N)CC(N)C(OC3OCC(C)(O)C(NC)C3O)C2O)O1 (stereo not shown) [gentamicin]
[10]
  susceptibility of strain: susceptible

## colistin
[10]
  susceptibility of strain: susceptible
